# Results published in paper PMC7099768, “A positron emission tomography imaging study to confirm target engagement in the lungs of patients with idiopathic pulmonary fibrosis following a single dose of a novel inhaled αvβ6 integrin inhibitor” (Respiratory Research, 2020).
# Key:
# [1] = single doses up to 3000 mcg; cited from earlier work
structure (smiles),measurement,setting,value
"Cc1cc(C)n(-c2cccc([C@H](CC(=O)O)CN3CC[C@@H](CCc4ccc5c(n4)NCCC5)C3)c2)n1 [GSK3008348, (S)-3-(3-(3,5-Dimethyl-1 H-pyrazol-1-yl)phenyl)-4-((R)-3-(2-(5,6,7,8-tetrahydro-1,8-naphthyridin-2-yl)ethyl)pyrrolidin-1-yl) butanoic acid]","Diarrhoea, n (%)","1000 mcg nebulised, N=5",0 n (%)
same,"Headache, n (%)","1000 mcg nebulised, N=5",1 (20) n (%)
same,"Number of participants with any AE, n (%)","1000 mcg nebulised, N=5",3 (60) n (%)
same,"Urinary tract infection, n (%)","1000 mcg nebulised, N=5",1 (20) n (%)
same,Intensity and treatment relation of AEs,single nebulised 1000 mcg doses,All AEs were mild in intensity and none were considered treatment related
same,Tolerability in healthy participants,[1],well tolerated
